Test results as given in patent US20060088502A1, “Drug for reducing side effects in ribavirin interferon combination therapy” (priority 2003, published 2006).
Marks after values point to notes of the source that are not given here.

System: patients with chronic hepatitis C who had developed anemia due to ribavirin/IFN α combination therapy
Type: in vivo, human
Conditions: average of 6 cases; p < 0.05 vs. before EPA administration (10.8 g/dL)
Method: After the onset of anemia, each patient received 600 mg of EPA-E (trade name: Epadel, manufactured by Mochida Pharmaceutical Co., Ltd.) three times a day by oral administration every after meal for 2 months. Depending on the disease cases, the time of starting the administration of EPA-E varied within the range from 1 to 4 months after the start of administration of ribavirin/IFN α. In the ribavirin/IFN α combination therapy, ribavirin (trade name: Rebetol, manufactured by Schering-Plough Corporation) was orally administered to each patient of over 60 kg in body weight at a dose of 400 mg every after morning meal and every after evening meal as well, and to each patient of 60 kg or less at a dose of 200 mg every after morning meal and 400 mg every after evening meal. Simultaneously, 6 million IU a day of IFN α-2b (trade name: Intron A, manufactured by Schering-Plough Corporation) was intramuscularly administered everyday for two weeks, followed by intermittent administration of three times a week for 22 weeks.

SMILES: CC/C=C\C/C=C\C/C=C\C/C=C\C/C=C\CCCC(=O)OCC [EPA, eicosapentaenoic acid ethyl ester]
- Hemoglobin level, average, after EPA administration for one month: 11.4* g/dL
- Hemoglobin level, average, after EPA administration for two months: 11.5* g/dL
